One experiment relates to HCT-116. In words: MTT assay, in-vitro cytotoxicity against HCT-116. The settings on record: Homo sapiens, HCT-116 colorectal carcinoma cells, scale: 1–10 very strong, 11–20 strong, 21–50 moderate, 51–100 weak, above 100 non-cytotoxic. The class given is cell-based. The source says: (§1) Hepatocellular carcinoma (HepG2), and colorectal carcinoma (HCT-116). The cell lines were obtained from ATCC via Holding company for biological products and vaccines (VACSERA), Cairo, Egypt.
(§2) The reagents RPMI-1640 medium, MTT and DMSO (sigma co., St. Louis, USA), Fetal Bovine serum (GIBCO, UK). 5-Fluorouracil was used as a standard anticancer drug for comparison.
(§3) HepG2 and (HCT-116 were used to determine the inhibitory effects of compounds on cell growth using the MTT assay. The relative cell viability in percentage was calculated as (A570 of treated samples/A570 of untreated sample) X 100.

The test system of another experiment is HepG2. In words: MTT assay, in-vitro cytotoxicity against HepG2. Conditions: Homo sapiens, HepG2 hepatocellular carcinoma cells, scale: 1–10 very strong, 11–20 strong, 21–50 moderate, 51–100 weak, above 100 non-cytotoxic. The class given is cell-based.
Description: as §1, §2, §3
(In general: Tetrazolium dyes change colour on reduction, which living cells bring about.)

Usually IC50 stands for the concentration that gives 50% inhibition.

For `N#Cc1c(N)nc2c(c(-c3ccccc3)nn2-c2ccccc2)c1N` [Compound 2, 4,6-Diamino-1,3-diphenyl-1H-pyrazolo[3,4-b]pyridine-5-carbonitrile], the IC50 was determined as 7.7 ± 1.8 µM in the experiment with HCT-116 and 9.2 ± 2.8 µM with HepG2.

Consider `NC(=O)c1c(N)nc2c(c(-c3ccccc3)nn2-c2ccccc2)c1N` [Compound 3, 4,6-Diamino-1,3-diphenyl-1H-pyrazolo[3,4-b]pyridine-5-carboxamide], for which the IC50 in the experiment on HCT-116 amounted to 29.4 ± 2.3 µM; in the experiment on HepG2, 22.8 ± 2.1 µM.

On to `Nc1c(C(=O)O)[nH]c2c1c(-c1ccccc1)nn2-c1ccccc1` [Compound 4, 4-Amino-1,3-diphenyl-1,6-dihydropyrrolo[2,3-c]pyrazole-5-carboxylic acid], for which the IC50 amounted to 15.2 ± 2.4 µM in the experiment with HCT-116 and 14.5 ± 2.8 µM with HepG2.

With `Nc1n[nH]c2c1c(-c1ccccc1)nn2-c1ccccc1` [Compound 5, 4,6-Diphenyl-1,6-dihydropyrazolo[3,4-c]pyrazol-3-amine], the results for the IC50 in the experiment with HCT-116 and in the experiment with HepG2 were 13.8 ± 3.9 µM and 8.8 ± 5.1 µM, respectively.

Take `O=c1[nH]cc(F)c(=O)[nH]1` [Compound 5-Fu, 5-Fluorouracil, reference compound]: the IC50 in the experiment on HCT-116 came out at 5.35 ± 0.3 µM; in the experiment on HepG2 it was 7.86 ± 0.5 µM.

For the molecule `Nc1nc(=O)[nH]c2c1c(-c1ccccc1)nn2-c1ccccc1` [Compound 6, 4-Amino-1,3-diphenyl-1,7-dihydro-6H-pyrazolo[3,4-d]pyrimidin-6-one], the IC50 in the experiment with HCT-116 amounted to 51 ± 2.7 µM; in the experiment with HepG2, 91.4 ± 4.2 µM.

As to `Nc1nc(=S)[nH]c2c1c(-c1ccccc1)nn2-c1ccccc1` [Compound 7, 4-Amino-1,3-diphenyl-1,7-dihydro-6H-pyrazolo[3,4-d]pyrimidine-6-thione], the IC50 was found to be 13.1 ± 2.3 µM in the experiment on HCT-116 and 10.2 ± 2.1 µM with HepG2.

For the molecule `CCOc1nc(-c2ccccc2)nc2c1c(-c1ccccc1)nn2-c1ccccc1` [Compound 8, 4-Ethoxy-1,3,6-triphenyl-1H-pyrazolo[3,4-d]pyrimidine], the IC50 in the experiment with HCT-116 worked out at 17.4 ± 3.9 µM; in the experiment on HepG2, 12.1 ± 5.1 µM.

On to `Nc1nc(-c2c(-c3ccccc3)nn(-c3ccccc3)c2N)nc2c1c(-c1ccccc1)nn2-c1ccccc1` [Compound 9, 6-(5-Amino-1,3-diphenyl-1H-pyrazol-4-yl)-1,3-diphenyl-1H-pyrazolo[3,4-d]pyrimidin-4-amine], for which the IC50 is 33.6 ± 2.1 µM with HCT-116 and 55.7 ± 2.7 µM with HepG2.

The values above are taken from article PMC10585773, “Green synthesis of highly functionalized heterocyclic bearing pyrazole moiety for cancer-targeted chemo/radioisotope therapy” (BMC Chemistry, 2023).
